Results: patent US20190106721A1, “Method for the fermentative production of L-amino acids” (priority 2017, published 2019)
≈ marks a conversion by molar mass, not a printed value.

Columns and labels:
Experiment in all cases: Minimal inhibitory concentration test (MIC-Test) of lincomycin, serial dilution in liquid culture
ATCC13032/pVWEx1 = assay type: cell-based; details: Corynebacterium glutamicum; strain ATCC13032/pVWEx1; as lincomycin-hydrochloride; BHI medium with 0.3 mM IPTG, 20 h, 33° C.
Method: (§1) For this purpose a first well of a microliter plate was filled with 360 μl of BHI medium supplemented with 0.3 mM IPTG and 250 μg/ml lincomycin-hydrochloride. A volume of 180 μl was removed and placed into a second well previously filled with 180 μl BHI medium supplemented with 0.3 mM IPTG. Thus a second well containing BHI medium supplemented with 0.3 mM IPTG and 125 μg/ml lincomycin-hydrochloride was prepared. From said second well 180 ∞l were removed and placed into a third well previously filled with 180 μl BHI medium supplemented with 0.3 mM IPTG. These dilution steps were repeated several times to cover the concentration range mentioned above. Thus wells containing 180 μl of the respective test medium were obtained. A control medium without lincomycin-hydrochloride was included in the test procedure.
(§2) A preculture of the strain to be tested was made in BHI medium (as described under cultivation) supplemented with 250 μg/ml kanamycin in case of plasmid containing strains). The preculture was centrifuged and the cell pellet resuspended in 0.9% (w/v) NaCl solution to give an OD660 of 1.0. A volume of 20 μl of the suspension was used to inoculate the test medium contained in the wells. The micro titer plate was incubated at 300 rpm and 33° C. in an Infors HT Multitron standard incubator shaker from Infors GmbH (Bottmingen, Switzerland). After 20 h the optical densities were measured. The test medium having the lowest concentration of lincomycin-hydrochloride preventing growth of the culture is given as MIC.
(§3) The MIC's of lincomycin for strains ATCC13032/pVWEx1; ATCC13032/pVWEx1_lmrB^ATCC14067; DM1933_ΔlmrB::EcoRV/pVWEx1 and DM1933_ΔlmrB::EcoRV/pVWEx1_lmrB^ATCC14067 constructed in example 8 were determined as described in materials and methods.

[1] = test system: DM1933_ΔlmrB::EcoRV/pVWEx1_lmrB^ATCC14067; assay type: cell-based; details: Corynebacterium glutamicum, ATCC14067, 20 h
Method: as §1, §2, §3

[2] = test system: ATCC13032/pVWEx1_lmrB^ATCC14067; assay type: cell-based; details: Corynebacterium glutamicum, 20 h
Method: as §1, §2, §3

[3] = test system: DM1933_ΔlmrB::EcoRV/pVWEx1; assay type: cell-based, Corynebacterium glutamicum; details: 20 h
Method: as §1, with “A control medium without lincomycin-hydrochloride was included in the test procedure.” left out
(§4) A preculture of the strain to be tested was made in BHI medium (as described under cultivation) supplemented with 250 μg/ml kanamycin in case of plasmid containing strains). […] After 20 h the optical densities were measured. […]
as §3
(§5) The MIC's of lincomycin for strains DM1933_ΔlmrB::EcoRV/pVWEx1 and DM1933_ΔlmrB::EcoRV/pVWEx1_lmrB^DM1547 constructed in examples 8 and 11 were determined as described in materials and methods.

[4] = test system: DM1933_ΔlmrB::EcoRV/pVWEx1_lmrB^DM1547; assay type: cell-based; details: Corynebacterium glutamicum, 20 h
Method: as §1
as §4, with “strains). The preculture was centrifuged and the cell pellet resuspended in 0.9% (w/v) NaCl solution to give an OD660 of 1.0.” for “strains).”
as §5

**Q.** Which MIC (ATCC13032/pVWEx1) does the source give for `CCC[C@@H]1C[C@@H](C(=O)N[C@@H]([C@H]2O[C@H](SC)[C@H](O)[C@@H](O)[C@H]2O)[C@@H](C)O)N(C)C1` [lincomycin, Lincomycin] here?
**A.** 15.6 µg/mL (≈ 38.4 µM)

**Q.** And the MIC [1]?
**A.** 62.5 µg/mL (≈ 154 µM)

**Q.** What about the MIC [2] of the same molecule?
**A.** 125 µg/mL (≈ 307 µM)

**Q.** And the MIC ([3]; Corynebacterium glutamicum)?
**A.** 7.8 µg/mL (≈ 19.2 µM)

**Q.** And the MIC ([3]; strain DM1933_DlmrB/pVWEx1 (Table 25), as lincomycin-hydrochloride, BHI medium with 0.3 mM IPTG, 33° C.)?
**A.** 7.8 µg/mL (≈ 19.2 µM)

**Q.** What about the MIC [4] of the same molecule?
**A.** 62.5 µg/mL (≈ 154 µM)
